Test results as given in patent publication US20190328691A1, “ANTIBIOTIC THERAPY” (Boulos & Cooper Pharmaceuticals Pty Ltd, priority 2015, published 2019).
Several values for one entry are separate records, joined by “and”; a condition that tells them apart may be missing. Identical values can stand only once. Like-named read-outs stand apart in the source and are kept apart here.

Experiments:
[1] = tested on: Staphylococcus aureus (ATCC 29213); assay: Checkerboard combination / MIC assay with S. aureus ATCC 29213; format: cell-based; conditions: S. aureus ATCC 29213; for MIC: Staphylococcus aureus, read-out: MIC of antibiotic alone
Protocol: (§1) Colonies were suspended in PBS. The absorbance of each suspension was measured with a spectrophotometer, and then the suspension was adjusted to 1×10^6 CFU/mL. The testing inoculum was prepared within 20 minutes before adding to wells of the test plate. Final cellular density in the checkerboard assays was 5×10^5 CFU/mL.
(§2) The combination effect of antibacterial substances administered together was evaluated by an in vitro checkerboard combination method with Staphylococcus aureus (ATCC 29213) and Staphylococcus aureus (BAA-1717). Ramizol and Chlopam were tested alone in 11 points by two-fold serial titration and in combination with different commercial antibiotics which were tested in a 7-point titration alone and in combination with Ramizol and Chlopam using the checkerboard technique as recommended by the Clinical & Laboratory Standards Institute (CLSI. Methods for Dilution In Antimicrobial Susceptibility Tests for Bacteria That Grow Aerobically; Approved Standard-Eighth Edition. CLSI document M07-A8 (ISBN 1-56238-689-1). Vol. 29 No. 2. Clinical and Laboratory Standards Institute, USA, 2009). The commercial antibiotics were also tested alone. Twenty-four checkerboard tests were performed.
(§3) The starting concentration of Ramizol, Chlopam, and the commercial antibiotics was four fold of the MIC. The testing range for each combination was described in the following summary tables.
(§4) Compound dilutions of Ramizol and Chlopam were performed in 100% DMSO and the final DMSO concentration in all test wells was 2%. Growth control wells also included 2% DMSO. CLSI protocol was followed for medium, inoculum preparation, and endpoint reading. The commercial antibiotics were dissolved and diluted in the CLSI specified diluent. The final inoculum count for each strain was 5×10^5 CFU/mL.
Cefepime, Daptomycin, Linezolid, Mupirocin, Oxacillin and Vancomycin were also tested alone. Each test substance was dissolved and diluted in 100% DMSO or specified solvent. Each test substance dilution (2 μL) was added to 96 μL broth CAMHB. CAMHB seeded with S. aureus ATCC 29213 at 1×10^6 CFU/mL (100 μL) was then added to the plate to generate a final cell count at 5×10^5 CFU/mL.
(§5) Assay plates were incubated and MIC endpoints were read as described in the MIC assay. FIC (Fraction Inhibitory Concentration) and FIC Index (FICI) values for each test condition and the average of FICI values of all pairwise combinations were calculated to determine if synergy or antagonism existed between the two substances. The FIC index was determined by calculating the sum of the ratios of MICs for both substances. Arithmetically, the FIC Index of a combination of Substance 1 and Substance 2 was defined as following: FICI=Σ[FIC(Substance 1)+FIC(Substance 2)]=[(MIC of Substance 1 in combination/MIC of Substance 1 alone)+(MIC of Substance 2 in combination/MIC of Substance 2 alone)]. Synergy is defined as the FICI (Σ)≤0.5; additivity as FICI (Σ)>0.5 to ≤1; indifference as FICI (Σ)>1 to ≤4; antagonism is defined as the FICI (Σ)>4 (Zinner and Blaser, J. Journal of Antimicrobial Chemotherapy (1986), 17, 1-5; Amin, et al BMC Complementary & Alternative Medicine (2015), 15, 59; Zuo, et al. Molecules (2011), 16, 9819-9826).

[2] = tested on: Staphylococcus aureus (BAA-1717); assay: Checkerboard combination / MIC assay with S. aureus BAA-1717 (MRSA); format: cell-based
Protocol: as §1, §2, §3, §4
Each test substance was dissolved and diluted in 100% DMSO or specified solvent. Each test substance dilution (2 μL) was added to 96 μL broth CAMHB. CAMHB seeded with S. aureus BAA-1717 at 1×10^6 CFU/mL (100 μL) was then added to the plate to generate a final cell count at 5×10^5 CFU/mL.
as §5

MIC of antibiotic in combination with Chlopam ([1]; Chlopam 0.003906 μg/mL): 4 µg/mL | MIC of antibiotic in combination with Chlopam ([1]; Chlopam 0.0078125 μg/mL): 4 µg/mL | MIC of antibiotic in combination with Chlopam ([1]; Chlopam 0.015625 μg/mL): 4 µg/mL | MIC of antibiotic in combination with Chlopam ([1]; Chlopam 0.25 μg/mL): 2 µg/mL | MIC of antibiotic in combination with Chlopam ([1]; Chlopam 0.5 μg/mL): 0.125 µg/mL | MIC of antibiotic in combination with Ramizol ([1]; Ramizol 0.015625 μg/mL): 4 µg/mL | MIC of antibiotic in combination with Ramizol ([1]; Ramizol 0.03125 μg/mL): 4 µg/mL | MIC of antibiotic in combination with Ramizol ([1]; Ramizol 0.0625 μg/mL): 4 µg/mL | MIC of antibiotic in combination with Ramizol ([1]; Ramizol 0.125 μg/mL): 4 µg/mL | MIC of antibiotic in combination with Ramizol ([1]; Ramizol 1 μg/mL): 2 µg/mL | MIC of antibiotic in combination with Ramizol ([1]; Ramizol 2 μg/mL): 1 µg/mL | MIC of antibiotic in combination with Ramizol ([1]; Ramizol 4 μg/mL): 0.125 µg/mL | MIC ([1]; ATCC29213, Table 4, checkerboard series with Chlopam): 4 µg/mL | MIC ([1]; ATCC29213, Table 7, checkerboard series with Ramizol): 4 µg/mL | MIC of antibiotic in combination with Chlopam ([2]; Chlopam 0.001953 μg/mL, S. aureus ATCC BAA-1717): 256 µg/mL | MIC of antibiotic in combination with Chlopam ([2]; Chlopam 0.003906 μg/mL, S. aureus ATCC BAA-1717): 256 µg/mL | MIC of antibiotic in combination with Chlopam ([2]; Chlopam 0.0078125 μg/mL, S. aureus ATCC BAA-1717): 256 µg/mL | MIC of antibiotic in combination with Chlopam ([2]; Chlopam 0.015625 μg/mL, S. aureus ATCC BAA-1717): 256 µg/mL | MIC of antibiotic in combination with Chlopam ([2]; Chlopam 0.03125 μg/mL, S. aureus ATCC BAA-1717): 256 µg/mL | MIC of antibiotic in combination with Chlopam ([2]; Chlopam 0.125 μg/mL, S. aureus ATCC BAA-1717): 128 µg/mL | MIC of antibiotic in combination with Chlopam ([2]; Chlopam 0.5 μg/mL, S. aureus ATCC BAA-1717): 8 µg/mL | MIC of antibiotic in combination with Ramizol ([2]; Ramizol 0.015625 μg/mL, S. aureus ATCC BAA-1717): 256 µg/mL | MIC of antibiotic in combination with Ramizol ([2]; Ramizol 0.03125 μg/mL, S. aureus ATCC BAA-1717): 256 µg/mL | MIC of antibiotic in combination with Ramizol ([2]; Ramizol 0.0625 μg/mL, S. aureus ATCC BAA-1717): 256 µg/mL | MIC of antibiotic in combination with Ramizol ([2]; Ramizol 0.125 μg/mL, S. aureus ATCC BAA-1717): 128 µg/mL | MIC of antibiotic in combination with Ramizol ([2]; Ramizol 0.25 μg/mL, S. aureus ATCC BAA-1717): 128 µg/mL | MIC of antibiotic in combination with Ramizol ([2]; Ramizol 0.5 μg/mL, S. aureus ATCC BAA-1717): 128 µg/mL | MIC of antibiotic in combination with Ramizol ([2]; Ramizol 1 μg/mL, S. aureus ATCC BAA-1717): 64 µg/mL | MIC ([2]; Staphylococcus aureus, ATCC BAA-1717 / BAA-1717, Table 4, checkerboard series with Chlopam, S. aureus ATCC BAA-1717, read-out: MIC of antibiotic alone): 256 µg/mL | MIC of antibiotic alone ([2]; Table 7, checkerboard series with Ramizol, S. aureus ATCC BAA-1717): 256 µg/mL
Structure (SMILES): CO/N=C(\C(=O)N[C@@H]1C(=O)N2C(C(=O)[O-])=C(C[N+]3(C)CCCC3)CS[C@H]12)c1csc(N)n1 [Cefepime]
FICI of combination with Chlopam ([1]; Chlopam 0.003906 μg/mL + labelled antibiotic at MIC of same cell): 1.0 | FICI of combination with Chlopam ([1]; Chlopam 0.0078125 μg/mL + labelled antibiotic at MIC of same cell): 1.0 | FICI of combination with Chlopam ([1]; Chlopam 0.015625 μg/mL + labelled antibiotic at MIC of same cell): 1.0 | FICI of combination with Chlopam ([1]; Chlopam 0.25 μg/mL + labelled antibiotic at MIC of same cell): 1.0 | FICI of combination with Chlopam ([1]; Chlopam 0.5 μg/mL + labelled antibiotic at MIC of same cell): 1.0 | FICI of combination with Ramizol ([1]; Ramizol 0.015625 μg/mL + labelled antibiotic at MIC of same cell): 1.0 | FICI of combination with Ramizol ([1]; Ramizol 0.03125 μg/mL + labelled antibiotic at MIC of same cell): 1.0 | FICI of combination with Ramizol ([1]; Ramizol 0.0625 μg/mL + labelled antibiotic at MIC of same cell): 1.0 | FICI of combination with Ramizol ([1]; Ramizol 0.125 μg/mL + labelled antibiotic at MIC of same cell): 1.0 | FICI of combination with Ramizol ([1]; Ramizol 1 μg/mL + labelled antibiotic at MIC of same cell): 0.8 | FICI of combination with Ramizol ([1]; Ramizol 2 μg/mL + labelled antibiotic at MIC of same cell): 0.8 | FICI of combination with Ramizol ([1]; Ramizol 4 μg/mL + labelled antibiotic at MIC of same cell): 1.0 | mean FICI of combination with Chlopam ([1]; labelled antibiotic + Chlopam, mean of all pairwise combinations): 1.1 | Effect of the combinations with Ramizol (by mean FICI) ([1]; labelled antibiotic + Ramizol): additive effect | mean FICI of combination with Ramizol ([1]; labelled antibiotic + Ramizol, mean of all pairwise combinations): 1.0 | FICI of combination with Chlopam ([2]; Chlopam 0.001953 μg/mL + labelled antibiotic at MIC of same cell, S. aureus ATCC BAA-1717): 1.0 | FICI of combination with Chlopam ([2]; Chlopam 0.003906 μg/mL + labelled antibiotic at MIC of same cell, S. aureus ATCC BAA-1717): 1.0 | FICI of combination with Chlopam ([2]; Chlopam 0.0078125 μg/mL + labelled antibiotic at MIC of same cell, S. aureus ATCC BAA-1717): 1.0 | FICI of combination with Chlopam ([2]; Chlopam 0.015625 μg/mL + labelled antibiotic at MIC of same cell, S. aureus ATCC BAA-1717): 1.0 | FICI of combination with Chlopam ([2]; Chlopam 0.03125 μg/mL + labelled antibiotic at MIC of same cell, S. aureus ATCC BAA-1717): 1.0 | FICI of combination with Chlopam ([2]; Chlopam 0.125 μg/mL + labelled antibiotic at MIC of same cell, S. aureus ATCC BAA-1717): 0.6 | FICI of combination with Chlopam ([2]; Chlopam 0.5 μg/mL + labelled antibiotic at MIC of same line, S. aureus ATCC BAA-1717): 0.5 | Effect of individual antibiotic combinations of lower concentrations ([2]; Chlopam and Cefepime: 0.25 and 64, 0.25 and 32, 0.25 and 16, 0.50 and 8 μg/mL, S. aureus ATCC BAA-1717): synergistic effect | FICI of combination with Ramizol ([2]; Ramizol 0.015625 μg/mL + labelled antibiotic at MIC of same cell, S. aureus ATCC BAA-1717): 1.0 | FICI of combination with Ramizol ([2]; Ramizol 0.03125 μg/mL + labelled antibiotic at MIC of same cell, S. aureus ATCC BAA-1717): 1.0 | FICI of combination with Ramizol ([2]; Ramizol 0.0625 μg/mL + labelled antibiotic at MIC of same cell, S. aureus ATCC BAA-1717): 1.0 | FICI of combination with Ramizol ([2]; Ramizol 0.125 μg/mL + labelled antibiotic at MIC of same line, S. aureus ATCC BAA-1717): 0.5 | FICI of combination with Ramizol ([2]; Ramizol 0.25 μg/mL + labelled antibiotic at MIC of same cell, S. aureus ATCC BAA-1717): 0.6 | FICI of combination with Ramizol ([2]; Ramizol 0.5 μg/mL + labelled antibiotic at MIC of same cell, S. aureus ATCC BAA-1717): 0.6 | FICI of combination with Ramizol ([2]; Ramizol 1 μg/mL + labelled antibiotic at MIC of same line, S. aureus ATCC BAA-1717): 0.5 | FICI of combination with Ramizol ([2]; Ramizol 2 μg/mL + labelled antibiotic at MIC of same line, S. aureus ATCC BAA-1717): 0.5 and 0.6 | Effect of individual antibiotic combinations of lower concentrations ([2]; Ramizol and Cefepime: 0.125 and 128, 1 and 64, 2 and 8 μg/mL, S. aureus ATCC BAA-1717): synergistic effect | Effect of the combinations with Chlopam (by mean FICI) ([2]; labelled antibiotic + Chlopam, S. aureus BAA-1717): additive effect | mean FICI of combination with Chlopam ([2]; labelled antibiotic + Chlopam, mean of all pairwise combinations, S. aureus ATCC BAA-1717): 0.8 | Effect of the combinations with Ramizol (by mean FICI) ([2]; labelled antibiotic + Ramizol, S. aureus BAA-1717): additive effect | mean FICI of combination with Ramizol ([2]; labelled antibiotic + Ramizol, mean of all pairwise combinations, S. aureus ATCC BAA-1717): 0.696
